Where a name gives a salt, the structure may show the parent alone. A value given as a limit tells only on which side of the number the result lay.

The first experiment relates to male C57BL/6 mice. Briefly: 55° C. warm-water tail-flick test (antinociception). It is filed as in vivo. Particulars: Mus musculus, sc, 0.5 h, compounds of Table I; s.c.; 30 min; 55° C. water; configuration tested as in Table II; read-out: ED50 (mg/kg) at 30 min on C57BL/6 mice in Warm-water Tail-flick Test. In outline: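 Mice with baseline tail-flick latency within 2 s at 55° C received compound s.c. and were retested at 30, 60, 90 and 120 min. % antinociception = 100×(test−control latency)/(20−control latency); ED50 in mg/kg.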
Consider `CCOCC1(Cn2cnc3cnccc32)CCN(C(C)(C)c2ccc(C)nc2)C1` (single isomer, unassigned) [Compound 85, (R or S)-1-((3-(ethoxymethyl)-1-(2-(6-methylpyridin-3-yl)propan-2-yl)pyrrolidin-3-yl)methyl)-1H-imidazo[4,5-c]pyridine citrate], for which the ED50 is ≤ 30 mg/kg. As to `Cc1ccc(C(C)(C)N2CCC(CCc3ccc(F)s3)(CN3CCOCC3)C2)cn1` (single isomer, unassigned) [Compound 106], the ED50 is ≤ 30 mg/kg. Turning to `OCC1(CCc2ccc(F)cc2)CCN(Cc2cccnc2)C1` (single isomer, unassigned) [Compound 44], the ED50 was ≤ 30 mg/kg.

Still in this experiment, the particulars now being: Mus musculus; half maximal effective dose in mice; using one of: warm water tail-flick test, spared nerve injury, chronic constriction injury, or Complete Freund's adjuvant induced inflammatory pain (not stated which per compound); read-out: Biological Activity (ED50).
With `CC(C)(c1ccccn1)N1CC[C@@](CCc2ccc(C#N)cc2)(C(=O)NC2(C(F)(F)F)COC2)C1` [Compound 206, (R)-3-(4-cyanophenethyl)-1-(2-(pyridin-2-yl)propan-2-yl)-N-(3-(trifluoromethyl)oxetan-3-yl)pyrrolidine-3-carboxamide], the ED50 was ≤ 30 mg/kg. Consider `N#Cc1ccc(CC[C@@]2(C3OCC3(F)F)CCN(Cc3cccnc3)C2)cc1` (single isomer, unassigned) [Compound 197, 4-(2-((R)-3-((R or S)-3,3-difluorooxetan-2-yl)-1-(pyridin-3-ylmethyl)pyrrolidin-3-yl)ethyl) benzonitrile], for which the ED50 was ≤ 30 mg/kg. For `CC(O)[C@]1(CCc2ccc(F)cc2)CCN(C(C)(C)c2ccc(S(C)(=O)=O)cc2)C1` (single isomer, unassigned) [Compound 38, (R or S)-1-((R)-3-(4-fluorophenethyl)-1-(2-(4-(methylsulfonyl)phenyl)propan-2-yl)pyrrolidin-3-yl)ethan-1-ol], the ED50 is > 50 mg/kg. In the case of `CC(C)c1nc(C(C)(C)N2CC[C@@](CCc3ccc(C#N)cc3)(C3CCCO3)C2)cs1` (single isomer, unassigned) [Compound 30, 4-(2-((R)-1-(2-(2-isopropylthiazol-4-yl)propan-2-yl)-3-((R or S)-tetrahydrofuran-2-yl)pyrrolidin-3-yl)ethyl) benzonitrile], the ED50 is > 50 mg/kg. Regarding `COc1cccc(C(C)(C)N2CC[C@](CO)(CCc3ccc(C#N)cc3)C2)c1` [Compound 142, (R)-4-(2-(3-(hydroxymethyl)-1-(2-(3-methoxyphenyl)propan-2-yl)pyrrolidin-3-yl)ethyl) benzonitrile], the ED50 is > 50 mg/kg. For `CC(C)(c1ccc(Cl)cc1)N1CC[C@](CCc2ccc(S(C)(=O)=O)cc2)(C(O)C(F)(F)F)C1` (single isomer, unassigned) [Compound 98, (R or S)-1-((S)-1-(2-(4-chlorophenyl)propan-2-yl)-3-(4-(methylsulfonyl)phenethyl)pyrrolidin-3-yl)-2,2,2-trifluoroethan-1-ol], the ED50 is ≤ 30 mg/kg. The same measure, in the same setting: as for `CC(C)(c1ccccn1)N1CC[C@](/C=C/c2ccc(S(C)(=O)=O)cc2)(C2CCCO2)C1` (single isomer, unassigned) [Compound 218, 2-(2-((R)-3-((E)-4-(methylsulfonyl)styryl)-3-((R or S)-tetrahydrofuran-2-yl)pyrrolidin-1-yl)propan-2-yl)pyridine], the figure is > 50 mg/kg; as for `CCOC(C(F)(F)F)(C(F)(F)F)[C@]1(CCc2ccc(C#N)s2)CCN(C(C)(C)c2ccccn2)C1` [Compound 161, (R)-5-(2-(3-(2-ethoxy-1,1,1,3,3,3-hexafluoropropan-2-yl)-1-(2-(pyridin-2-yl)propan-2-yl)pyrrolidin-3-yl)ethyl)thiophene-2-carbonitrile], > 50 mg/kg; as for `Cc1ccc(CN2CC[C@@](CCc3ccc(C#N)cc3)(C3OCC3(C)C)C2)cn1` (single isomer, unassigned) [Compound 194, 4-(2-((R)-3-((R or S)-3,3-dimethyloxetan-2-yl)-1-((6-methylpyridin-3-yl)methyl)pyrrolidin-3-yl)ethyl) benzonitrile], ≤ 30 mg/kg. Still for that read-out and setting: as for `CC(C)(c1ccccn1)N1CC[C@](CO)(CCc2ccc3nonc3c2)C1` [Compound 167, (R)-(3-(2-(benzo[c][1,2,5]oxadiazol-5-yl)ethyl)-1-(2-(pyridin-2-yl)propan-2-yl)pyrrolidin-3-yl)methanol], the figure is ≤ 30 mg/kg; as for `CCOC[C@]1(CCc2ccc(C#N)cc2)CCN(Cc2cccnc2)C1` [Compound 3, (R)-4-(2-(3-(ethoxymethyl)-1-(pyridin-3-ylmethyl)pyrrolidin-3-yl)ethyl) benzonitrile], ≤ 30 mg/kg. `CC(C)(c1ccccn1)N1CC[C@@](CCc2ccc(C#N)cc2F)(COCc2ccccc2)C1` [Compound 109, (R)-4-(2-(3-((benzyloxy)methyl)-1-(2-(pyridin-2-yl)propan-2-yl)pyrrolidin-3-yl)ethyl)-3-fluorobenzonitrile]: the ED50 is > 50 mg/kg. Take `CC(C)(c1ccccn1)N1CC[C@@](CCc2ccc3nonc3c2)(c2nn[nH]n2)C1` [Compound 181, (R)-5-(2-(1-(2-(pyridin-2-yl)propan-2-yl)-3-(2H-tetrazol-5-yl)pyrrolidin-3-yl)ethyl) benzo[c] [1,2,5]oxadiazole]: the ED50 is > 50 mg/kg.

Consider `Cc1ccc(CN2CC[C@@](CCc3ccc(C#N)cc3)(C3OCC3(F)F)C2)cn1` (single isomer, unassigned) [Compound 198, 4-(2-((R)-3-((R or S)-3,3-difluorooxetan-2-yl)-1-((6-methylpyridin-3-yl)methyl)pyrrolidin-3-yl)ethyl) benzonitrile], for which the ED50 is ≤ 30 mg/kg. The same measure, in the same setting: the value for `CC(C)(c1ccccn1)N1CC[C@@](CCc2ccc(S(C)(=O)=O)cc2)(C2CCCO2)C1` (single isomer, unassigned) [Compound 67] was > 50 mg/kg. With `CC(C)(c1ccccn1)N1CC[C@@](CCc2ccc(C#N)c(F)c2)(C(=O)C(F)(F)F)C1` [Compound 105, (R)-2-fluoro-4-(2-(1-(2-(pyridin-2-yl)propan-2-yl)-3-(2,2,2-trifluoroacetyl)pyrrolidin-3-yl)ethyl) benzonitrile], the ED50 was > 50 mg/kg. On to `N#Cc1ccc(CC[C@@]2(C3CCO3)CCN(Cc3cccnc3)C2)cc1` (single isomer, unassigned) [Compound 11, 4-(2-((R)-3-((R or S)-oxetan-2-yl)-1-(pyridin-3-ylmethyl)pyrrolidin-3-yl)ethyl) benzonitrile], for which the ED50 was ≤ 30 mg/kg.

On to `CC(C)(c1ccccn1)N1CC[C@@](CCc2ccc3ccoc3c2)(c2c[nH]nn2)C1` [Compound 191, (R)-2-(2-(3-(2-(benzofuran-6-yl)ethyl)-3-(1H-1,2,3-triazol-4-yl)pyrrolidin-1-yl)propan-2-yl)pyridine], for which the ED50 is > 50 mg/kg. Turning to `CC(C)(c1ccccn1)N1CC[C@](CO)(CCc2ccc(C#N)cc2F)C1` [Compound 111, (R)-3-fluoro-4-(2-(3-(hydroxymethyl)-1-(2-(pyridin-2-yl)propan-2-yl)pyrrolidin-3-yl)ethyl) benzonitrile], the ED50 is > 50 mg/kg. Consider `CC(C)(c1ccccn1)N1CC[C@@](CCc2ccccc2C#N)(COCc2ccccc2)C1` [Compound 126, (R)-2-(2-(3-((benzyloxy)methyl)-1-(2-(pyridin-2-yl)propan-2-yl)pyrrolidin-3-yl)ethyl) benzonitrile], for which the ED50 was > 50 mg/kg. Still for that read-out and setting: the value for `CC(C)(c1ccccn1)N1CC[C@@](CCc2ccc(C#N)cc2)(C(O)c2ccccc2)C1` (single isomer, unassigned) [Compound 57] was ≤ 30 mg/kg; that for `CCOC[C@@]1(CCc2ccc(C#N)cc2)CCN(C(c2cccnc2)c2cccnc2)C1` [Compound 27, (S)-4-(2-(1-(di(pyridin-3-yl)methyl)-3-(ethoxymethyl)pyrrolidin-3-yl)ethyl) benzonitrile] was > 50 mg/kg. Take `CCOC(C(F)(F)F)[C@]1(CCc2ccc(C#N)s2)CCN(C(C)(C)c2ccccn2)C1` (single isomer, unassigned) [Compound 156, 5-(2-((R)-3-((R or S)-1-ethoxy-2,2,2-trifluoroethyl)-1-(2-(pyridin-2-yl)propan-2-yl)pyrrolidin-3-yl)ethyl)thiophene-2-carbonitrile]: the ED50 was ≤ 30 mg/kg.

`Cc1ccc(C(C)(C)N2CC[C@@](CCc3ccc(C#N)cc3)(COCC(F)(F)F)C2)cn1` [Compound 26, (R)-4-(2-(1-(2-(6-methylpyridin-3-yl)propan-2-yl)-3-((2,2,2-trifluoroethoxy)methyl)pyrrolidin-3-yl)ethyl)benzonitrile]: the ED50 is > 50 mg/kg. Same read-out and setting: the value for `CC(C)(O)[C@@]1(CCc2ccc(C#N)cc2)CCN(C(c2cccnc2)c2cccnc2)C1` [Compound 63] was > 50 mg/kg; that for `CCOC[C@]1(CCc2ccc(C#N)cc2)CCN(C(C)c2ccnnc2)C1` (stereo partly drawn) [Compound 25, 4-(2-((3R)-3-(ethoxymethyl)-1-(1-(pyridazin-4-yl)ethyl)pyrrolidin-3-yl)ethyl)benzonitrile] was ≤ 30 mg/kg; that for `Cc1ccc(C(C)(C)N2CC[C@](CO)(CCc3ccc(F)cc3)C2)cn1` [Compound 15, (R)-(3-(4-fluorophenethyl)-1-(2-(6-methylpyridin-3-yl)propan-2-yl)pyrrolidin-3-yl)methanol] was ≤ 30 mg/kg.

For `CC(C)(c1ccccn1)N1CC[C@@](CCc2ccc3ccoc3c2)(c2nn[nH]n2)C1` [Compound 183, (R)-2-(2-(3-(2-(benzofuran-6-yl)ethyl)-3-(2H-tetrazol-5-yl)pyrrolidin-1-yl)propan-2-yl)pyridine], the ED50 was > 50 mg/kg.

The experiment is the same for the next values; noted with them: half maximal effective dose in mice; using one of: warm water tail-flick test, spared nerve injury, chronic constriction injury, or Complete Freund's adjuvant induced inflammatory pain (not stated which per compound).
For `CC(C)(c1ccccn1)N1CC[C@@](CCc2ccc(F)c(F)c2)(C(O)C(F)(F)F)C1` (single isomer, unassigned) [Compound 151, (R or S)-1-((R)-3-(3,4-difluorophenethyl)-1-(2-(pyridin-2-yl)propan-2-yl)pyrrolidin-3-yl)-2,2,2-trifluoroethan-1-ol], the “Biological Activity (ED50)” value is reported as “+ (+ indicates ED 50>50 mg/kg)”.

Source of the values: patent US20240383882A1 (Ecstasy LLC, priority 2020, published 2024).
